Consider five molecules from DBAASP.

The MIC is the least concentration at which growth counts as inhibited.

Among the test systems are Escherichia coli UB1005; Escherichia coli KF130; Escherichia coli KF111; Escherichia coli BL21.
Assay in all cases: ≥ marks a high value that may be exact or a test limit, other limits are often not marked, values filed in µg/mL are converted to µM
The subject of assay [1] is Staphylococcus aureus VISA1.
For assay [2], the system named is Candida albicans ATCC 10259.
Assay [3] deals with Staphylococcus aureus VRSA1.
Assay [4] has as its system Enterococcus faecium BCRC 15B0132.
The test system of assay [5] is Staphylococcus aureus VISA3.
The test system of assay [6] is Enterococcus faecalis ATCC 29212.
Assay [7] has as its system Staphylococcus aureus VRSA2.
For assay [8], the system named is Pseudomonas aeruginosa ATCC 27853.
In assay [9] the test system is Micrococcus luteus ATCC 10240.
Assay [10] has as its system Staphylococcus epidermidis ATCC 12228.
For assay [11], the system named is Candida albicans ATCC 24433.
Assay [12] has as its system Klebsiella pneumoniae NCIMB 9111.
The test system of assay [13] is Staphylococcus aureus ATCC 25923.
Assay [14] concerns Pseudomonas aeruginosa H744.
For assay [15], the system named is Pseudomonas aeruginosa H374.
The test system of assay [16] is Staphylococcus epidermidis.
Assay [17] concerns Pseudomonas aeruginosa K799.
The test system of assay [18] is Salmonella enterica subsp. enterica serovar Typhimurium ATCC 14028s.
Assay [19] relates to Enterococcus faecalis NCTC 12697.
Assay [20] concerns Escherichia coli ATCC 25922.
Assay [21] has as its system Lactobacillus acidophilus NCTC 1723.
In assay [22] the test system is Pseudomonas aeruginosa ATCC 15692.
Assay [23] concerns Escherichia coli ATCC 27325.
For assay [24], the system named is Streptococcus mutans NCTC 10449.
Assay [25] has as its system Salmonella enterica subsp. enterica serovar Choleraesuis CVCC 2140.
For assay [26], the system named is Staphylococcus aureus ATCC 29213.
Assay [27] has as its system Bacillus cereus ATCC 9193.
Assay [28] relates to Pasteurella multocida ATCC 6529.
For assay [29], the system named is Cryptococcus neoformans ATCC 34881.
For assay [30], the system named is Bacillus subtilis ATCC 62037.
The test system of assay [31] is Streptococcus mutans ATCC 25175.
Assay [32] deals with Saccharomyces cerevisiae ATCC 44774.
Assay [33] has as its system Staphylococcus aureus ATCC 15752.
Assay [34] relates to Pseudomonas putida ATCC 17426.
The test system of assay [35] is Candida albicans ATCC 10231.
Assay [36] relates to Salmonella enterica subsp. enterica serovar Enteritidis ATCC 13076.

In brackets after ≈: the same amount, converted by molar mass.

`CC(=O)N[C@@H](C)C(=O)N[C@@H](CCCCN)C(=O)N[C@@H](CCCN=C(N)N)C(=O)N[C@@H](Cc1cnc[nH]1)C(=O)N[C@@H](Cc1cnc[nH]1)C(=O)NCC(=O)N[C@@H](Cc1ccc(O)cc1)C(=O)N[C@@H](CCCCN)C(=O)N[C@@H](CCCN=C(N)N)C(=O)N[C@@H](CCCCN)C(=O)N[C@@H](Cc1ccccc1)C(=O)N[C@@H](Cc1cnc[nH]1)C(N)=O` [AKRHHGYKRKFH]: the MIC in assay [1] was no less than 40.9 µM; in assay [2], no less than 47.9 µM; in [3], no less than 40.9 µM; in assay [4], no less than 40.9 µM; in assay [5], no less than 40.9 µM; in assay [6], 10.2 µM (≈ 16.4 µg/mL). Besides, the MIC in [7] is no less than 40.9 µM; in [8], 320 µM (≈ 513 µg/mL); in assay [9], no less than 47.9 µM; in [10], 20.8 µM (≈ 33.4 µg/mL); in assay [11], no less than 47.9 µM; in [12] it was no less than 320 µM. The molecule further returned an MIC in assay [13] of 20.8 µM (≈ 33.4 µg/mL).
With `CC[C@H](C)[C@H](NC(=O)[C@@H]1CCCN1C(=O)[C@H](CCCCN)NC(=O)[C@H](CC(C)C)NC(=O)[C@H](C)NC(=O)[C@@H](NC(=O)[C@H](Cc1ccc(O)cc1)NC(=O)[C@H](CC(C)C)NC(=O)[C@@H](NC(=O)[C@@H](NC(=O)[C@H](CCCN=C(N)N)NC(=O)[C@H](C)NC(=O)[C@@H]1CCCN1C(=O)[C@H](CO)NC(=O)[C@H](CCCCN)NC(=O)[C@H](Cc1ccccc1)NC(=O)[C@@H](NC(=O)[C@H](CCCCN)NC(=O)[C@H](CC(C)C)NC(=O)[C@H](Cc1ccccc1)NC(=O)[C@H](CO)NC(=O)[C@H](CCCCN)NC(=O)[C@H](Cc1c[nH]c2ccccc12)NC(=O)[C@@H](N)CCCCN)[C@@H](C)O)[C@@H](C)O)C(C)C)[C@@H](C)O)C(=O)N[C@@H](CO)C(=O)N[C@@H](CO)C(=O)O` [KWKSFLKTFKSPARTVLYTALKPISS], the MIC is 5.34 µM (≈ 16 µg/mL) in [14]; 0.334 µM (≈ 1 µg/mL) with Escherichia coli UB1005; 0.667 µM (≈ 2 µg/mL) in the assay with Escherichia coli KF130; 5.34 µM (≈ 16 µg/mL) in [15]; 21.3 µM (≈ 64 µg/mL) in assay [16]; 10.7 µM (≈ 32 µg/mL) in assay [17]. Further, the results for the MIC (in assay [18]; in the assay on Escherichia coli KF111) were 5.34 µM (≈ 16 µg/mL) and 0.667 µM (≈ 2 µg/mL), respectively.
With `CC[C@H](C)[C@H](NC(=O)[C@H](CO)NC(=O)[C@H](CC(N)=O)NC(=O)[C@H](CC(C)C)NC(=O)[C@H](Cc1ccc(O)cc1)NC(=O)[C@H](CCCCN)NC(=O)[C@H](CCCCN)NC(=O)[C@@H](NC(=O)[C@H](C)NC(=O)[C@H](CCSC)NC(=O)[C@H](CCC(N)=O)NC(=O)[C@H](CCCCN)NC(=O)[C@H](CCCN=C(N)N)NC(=O)[C@H](CC(C)C)NC(=O)[C@H](CCCN=C(N)N)NC(=O)[C@@H](NC(=O)[C@H](Cc1ccc(O)cc1)NC(=O)[C@H](CC(N)=O)NC(=O)[C@H](CC(=O)O)NC(=O)[C@@H](NC(=O)[C@H](Cc1ccccc1)NC(=O)[C@@H](NC(=O)[C@H](C)NC(=O)[C@H](CC(=O)O)NC(=O)[C@H](CO)NC(=O)[C@@H](N)Cc1cnc[nH]1)C(C)C)[C@@H](C)O)[C@@H](C)O)C(C)C)C(=O)N[C@@H](CC(C)C)C(=O)N[C@@H](CC(N)=O)C(N)=O` [HSDAVFTDNYTRLRKQMAVKKYLNSILN], the MIC in [19] is no less than 150 µM; in assay [20] it was 1.56 µM (≈ 5.2 µg/mL); in assay [21], no less than 150 µM; in assay [22], no less than 75.1 µM; in [23] it was no less than 150 µM; in assay [24], no less than 45.3 µM. The MIC in [8] was 1.23 µM (≈ 4.1 µg/mL); in assay [13], greater than 150 µM.
As to `CC(C)C[C@@H]1NC(=O)CNC(=O)CNC(=O)[C@H](Cc2cnc[nH]2)NC(=O)[C@@H]2CSSC[C@@H]3NC(=O)[C@H](Cc4ccccc4)NC(=O)[C@H](CC(N)=O)NC(=O)CNC(=O)[C@H](CCC(N)=O)NC(=O)[C@H](CO)NC(=O)[C@H](CCCN=C(N)N)NC(=O)[C@@H](NC(=O)[C@H](C)NC(=O)[C@H](C)NC(=O)[C@@H](NC(=O)[C@H](CC(=O)O)NC(=O)[C@H](C)NC(=O)[C@H](Cc4ccccc4)NC(=O)[C@@H]4CCCN4C(=O)[C@H](C)NC(=O)[C@H](CC(=O)O)NC(=O)[C@H](C)NC(=O)[C@H](CO)NC(=O)CNC(=O)[C@@H]4CCCN4C(=O)[C@H](C)NC(=O)[C@H](C)NC(=O)[C@H](CCC(N)=O)NC(=O)[C@H](Cc4ccccc4)NC(=O)[C@H](CC(C)C)NC(=O)[C@H](Cc4ccccc4)NC(=O)[C@H](CC(C)C)NC(=O)[C@H](CC(C)C)NC(=O)[C@@H](N)C(C)C)[C@@H](C)O)CSSC[C@H](NC(=O)[C@H](CC(N)=O)NC(=O)[C@H](CC(C)C)NC1=O)C(=O)N[C@H](C(=O)N[C@@H](C)C(=O)N[C@@H](CCCCN)C(=O)O)CSSC[C@H](NC(=O)[C@H](C)NC(=O)CNC(=O)[C@H](C)NC(=O)[C@H](CCCN=C(N)N)NC3=O)C(=O)N1CCC[C@H]1C(=O)N1CCC[C@H]1C(=O)N[C@@H]([C@@H](C)O)C(=O)N[C@@H](Cc1ccccc1)C(=O)N[C@@H](C)C(=O)N[C@@H](C)C(=O)N[C@@H](CO)C(=O)NCC(=O)N[C@@H](CO)C(=O)N2` [VLLFLFQAAPGSADAPFADTAACRSQGNFCRAGACPPTFAASGSCHGGLLNCCAK], the MIC against Escherichia coli BL21 is no less than 57.4 µM; in assay [25], no less than 73.2 µM; in assay [26] it was 3.66 µM; in assay [27] it was 0.97 µM; in assay [28], 14.4 µM.
As for `CC[C@H](C)[C@H](NC(=O)[C@@H]1CCCN1C(=O)[C@H](Cc1c[nH]c2ccccc12)NC(=O)[C@H](CCC(N)=O)NC(=O)[C@H](CCCCN)NC(=O)[C@@H](NC(=O)[C@@H](NC(=O)[C@@H](N)CCCCN)C(C)C)C(C)C)C(=O)NCC(=O)N[C@@H](CCCCN)C(=O)N[C@H](C(=O)N[C@H](C(=O)N[C@@H](CCCCN)C(=O)N[C@@H](CCCCN)C(=O)N[C@H](C(=O)N[C@H](C(=O)N[C@@H](CCCCN)C(=O)N[C@@H](CCCCN)C(=O)N[C@H](C(=O)N[C@H](C(=O)N[C@@H](CCCCN)C(=O)O)C(C)C)C(C)C)C(C)C)C(C)C)C(C)C)C(C)C` [KVVKQWPIGKVVKKVVKKVVK], the MIC in [29] is 0.827 µM (≈ 2 µg/mL); in assay [30], 0.827 µM (≈ 2 µg/mL); in assay [31], 0.827 µM (≈ 2 µg/mL); in [32], 0.827 µM (≈ 2 µg/mL); in assay [23] it was 0.827 µM (≈ 2 µg/mL); in assay [33], 0.413 µM (≈ 1 µg/mL). Further, the MIC in assay [34] was found to be 0.413 µM (≈ 1 µg/mL); in assay [35] it was 0.413 µM (≈ 1 µg/mL); in [36], 0.827 µM (≈ 2 µg/mL).
